Publication PMC8776995 (Frontiers in Chemistry, 2022)
Values joined by “and” are separate entries in the source; they are usually repeats but may differ in a detail not shown here. Identical values can stand only once.

What was measured:
wild-type EGFR = wild-type EGFR (Homo sapiens, UniProt P00533); assay: EGFR kinase assay (ELISA); conditions: for A450: raw ELISA absorbance
PC-9 cells [1] = assay: Annexin V/PI flow cytometry for cell apoptosis, PC-9; type: cell-based, human; design: key to Apoptosis (sum of Q2 and Q3) / Apoptosis, Average: % apoptotic cells (Annexin V/PI flow cytometry); conditions: for Apoptosis, Average / Apoptosis (sum of Q2 and Q3) / Lymphocytes/Q2: FITC-A+ , PI-A+ Freq. of Parent / Lymphocytes/Q3: FITC-A+ , PI-A- Freq. of Parent: PC-9, 48h; for Apoptosis, Average: average of three repeats; for Apoptosis (sum of Q2 and Q3): single repeats (Repeat 1-3); for Lymphocytes/Q2: FITC-A+ , PI-A+ Freq. of Parent / Lymphocytes/Q3: FITC-A+ , PI-A- Freq. of Parent: single runs
Experimental: To establish whether the antiproliferative efficacy is associated with apoptosis, PC-9 and H460 cells were treated with compound e4 or e12 of various concentrations (4, 8 and 12 μM) for 48 h, and then assessed with flow cytometry.
Cell-apoptosis analysis was carried out by flow cytometry using the Annexin V/PI apoptosis kit according to the manufacturer’s manual. Briefly, PC-9 or H460 (3 × 10^4–5 × 10^4/well) cells were seeded in 12-well plates for 24 h, and then treated with 0.1% DMSO (as control) or various concentrations of compound e4 or e12 for 48 h, respectively. Cells were harvested, washed with PBS, and then incubated with 100ul of 1X Annexin V binding buffer containing 1 μl PI and 1 μl FITC Annexin V for 15 min at RT in the dark. 200 µl of 1X binding buffer were added to each tube for flow cytometry analysis (BD LSRFortessa™ Flow Cytometer). The percentages of apoptotic cells were analyzed using FlowJo soft.

H460 cells = assay: Flow cytometry detection for cell cycle, H460; type: cell-based, human; conditions: for G0/G1 / G2/M / S: single experiments (20200711, 20200810, 20200812)
Experimental: To investigate the effects of compounds e4 and e12 on various phases of the cell cycle, PC-9 cells were treated with compound e4 or e12 of various concentrations for 24 h, and H460 cells were treated with compound e4 or e12 of various concentrations for 12 h.
PC-9 or H460 (2 × 10^5–3 × 10^5/well) cells were seeded in six-well plates for 24 h, and then treated with 0.1% DMSO (as control), various concentrations of either compound e4 or e12 for 24 h (PC-9) or 12 h (H460), respectively. The treated cells were harvested, washed with PBS, and then stained using the cell-cycle staining kit according to the manufacturer’s manual. The distribution of cell-cycle phases with different DNA contents was determined by flow cytometry (BD LSRFortessa™ Flow Cytometer) and analyzed using ModFit LT software.

[2] = tested on: AKT phosphorylation (S473) in H460 cells; assay: Western blot, p-AKT/AKT in H460; conditions: for p-AKT/AKT: band density ratio; for p-AKT/AKT relative to DMSO: ratio normalised to DMSO
Experimental: (§1) We also performed western blot analysis to evaluate the impact of e4 and e12 on EGFR signaling in PC-9 and H460 cells.
(§2) H460 cells were seeded in six-well plates with serum-free medium overnight, and then treated complete medium containing 0.1% DMSO, various concentrations (0.1, 1 and 10 μM) of either compound e4 or e12 for 2 h, respectively. […] Then the H460 cells were treated with complete medium containing EGF (10 ng/ml) for 5 min. Then the cells were harvested and washed with PBS, centrifuged, resuspended in 100–200 μl of RIPA lysis buffer containing Protease and Phosphatase Inhibitor Cocktail (1X), and then centrifuged for 5 min at 12,000 rpm at 4°C. The supernatant was used for protein analysis. […] Then the membrane was washed 5 min (X3) and incubated at 1:3,000 dilution of anti-rabbit secondary antibodies or 1:1,000 dilution of anti-mouse secondary antibodies for 1 h at RT. After washing with TBST 5 min (X3), protein bands were developed by chemiluminescence. The protein levels were quantified by the gray values of the bands in the resulting images by ImageJ, and the control group was used as the standard. […] The PC-9 cells were harvested and analyzed as above.

[3] = tested on: EGFR phosphorylation (Tyr1068) in H460 cells; assay: Western blot, p-EGFR/EGFR in H460; conditions: for p-EGFR/EGFR: band density ratio; for p-EGFR/EGFR relative to DMSO: ratio normalised to DMSO
Experimental: as §1, §2

PC-9 cells [4] = assay: CCK-8 antiproliferation assay, PC-9; conditions: for Inhibitory efficacy: single repeats (Repeat 1-3), given as fraction
PC-9 cells [5] = assay: Hoechst 33342 staining for cell apoptosis; type: cell-based, human; conditions: PC-9, various concentrations, 48 h, vs 0.1% DMSO
Experimental: To further verify the impact of compounds e4 and e12 on apoptosis of NSCLC cells, PC-9 cells were treated with either compound e4 or e12 at various concentrations for 48 h and then stained with dye Hoechst 33342.
PC-9 cells were seeded in 96-well plates, then treated with 0.1% DMSO (as control) or various concentrations of compound e4 or e12 for 48 h. Culture medium from the cells was removed and replaced with medium containing dye Hoechst 33342. Cells were incubated at 37°C for 5–15 min, washed with PBS twice, and then observed and imaged under the Nikon Ti-U microscope.

Chain of wild-type EGFR (P00533 25-1210): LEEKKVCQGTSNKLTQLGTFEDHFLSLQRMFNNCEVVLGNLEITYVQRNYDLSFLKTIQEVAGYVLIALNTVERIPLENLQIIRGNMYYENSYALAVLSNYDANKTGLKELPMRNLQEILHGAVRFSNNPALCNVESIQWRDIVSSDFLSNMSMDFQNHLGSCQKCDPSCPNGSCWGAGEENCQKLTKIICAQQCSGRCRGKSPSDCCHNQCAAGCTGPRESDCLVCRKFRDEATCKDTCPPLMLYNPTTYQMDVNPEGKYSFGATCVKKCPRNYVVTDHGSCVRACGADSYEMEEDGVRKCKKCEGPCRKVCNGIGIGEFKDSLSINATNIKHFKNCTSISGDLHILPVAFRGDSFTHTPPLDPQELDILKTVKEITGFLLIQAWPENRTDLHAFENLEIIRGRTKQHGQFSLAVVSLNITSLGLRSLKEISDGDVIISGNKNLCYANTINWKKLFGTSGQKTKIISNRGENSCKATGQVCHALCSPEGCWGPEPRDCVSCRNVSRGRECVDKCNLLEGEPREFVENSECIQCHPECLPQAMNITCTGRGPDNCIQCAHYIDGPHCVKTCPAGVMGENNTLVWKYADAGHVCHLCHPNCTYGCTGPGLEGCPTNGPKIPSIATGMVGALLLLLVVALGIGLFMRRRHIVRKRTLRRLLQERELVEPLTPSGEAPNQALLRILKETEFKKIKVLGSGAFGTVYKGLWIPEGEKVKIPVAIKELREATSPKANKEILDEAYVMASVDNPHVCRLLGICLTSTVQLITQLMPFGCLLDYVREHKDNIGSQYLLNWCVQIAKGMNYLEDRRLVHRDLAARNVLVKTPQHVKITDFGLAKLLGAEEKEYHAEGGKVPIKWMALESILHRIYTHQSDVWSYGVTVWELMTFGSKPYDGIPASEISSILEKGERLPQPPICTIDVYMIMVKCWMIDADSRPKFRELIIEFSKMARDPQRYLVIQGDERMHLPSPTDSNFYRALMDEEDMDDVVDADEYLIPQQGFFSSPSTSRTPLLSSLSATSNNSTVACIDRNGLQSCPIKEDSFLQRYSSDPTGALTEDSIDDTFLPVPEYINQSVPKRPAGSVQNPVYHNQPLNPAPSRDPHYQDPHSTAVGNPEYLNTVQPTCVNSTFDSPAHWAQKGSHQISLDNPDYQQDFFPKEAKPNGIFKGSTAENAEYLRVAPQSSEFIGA

- IC50 (wild-type EGFR; IC50 (μM) EGFR, ELISA, 3 μmol/L ATP): 1.76 µM
- inhibition at 100 fM (wild-type EGFR; concentration 0.0001 nM (reference for normalisation), one value per replicate column): 0%
- inhibition at 30 pM (wild-type EGFR; concentration 0.03 nM, one value per replicate column): 8.63%
- Inhibition (wild-type EGFR; concentration 0.03 nM, one value per replicate column, 3e-05 µM): 6.151
- inhibition at 0.0003 µM (wild-type EGFR; concentration 0.3 nM, one value per replicate column): 9.04%
- Inhibition (wild-type EGFR; concentration 0.3 nM, one value per replicate column, 0.0003 µM): 14.0873
- inhibition at 0.003 µM (wild-type EGFR; concentration 3 nM, one value per replicate column): 9.24%
- Inhibition (wild-type EGFR; concentration 3 nM, one value per replicate column, 0.003 µM): 16.0714
- inhibition at 0.03 µM (wild-type EGFR; concentration 30 nM, one value per replicate column): 16.1%
- Inhibition (wild-type EGFR; concentration 30 nM, one value per replicate column, 0.03 µM): 18.4524
- inhibition at 0.3 µM (wild-type EGFR; concentration 300 nM, one value per replicate column): 20.3%
- Inhibition (wild-type EGFR; concentration 300 nM, one value per replicate column, 0.3 µM): 32.1429
- inhibition at 3 µM (wild-type EGFR; concentration 3000 nM, one value per replicate column): 50.8%
- Inhibition (wild-type EGFR; concentration 3000 nM, one value per replicate column, 3 µM): 50.5952
- inhibition at 30 µM (wild-type EGFR; concentration 30000 nM, one value per replicate column): 85.5%
- Inhibition (wild-type EGFR; concentration 30000 nM, one value per replicate column, 30 µM): 85.9127
- A450 (wild-type EGFR; concentration 0.0001 nM): 0.655 and 0.663
- A450 (wild-type EGFR; concentration 0.03 nM): 0.612 and 0.632
- A450 (wild-type EGFR; concentration 0.3 nM): 0.61 and 0.592
- A450 (wild-type EGFR; concentration 3 nM): 0.609 and 0.582
- A450 (wild-type EGFR; concentration 30 nM): 0.575 and 0.57
- A450 (wild-type EGFR; concentration 300 nM): 0.554 and 0.501
- A450 (wild-type EGFR; concentration 3000 nM): 0.402 and 0.408
- A450 (wild-type EGFR; concentration 30000 nM): 0.229 and 0.23
- IC50 (PC-9 cells [4]; Homo sapiens, PC-9, 48 h, read-out: IC50 (μM) PC-9): 6.36 ± 0.11 µM
SMILES: COCCOc1cc2ncnc(Nc3cccc(-c4cn(-c5ccc(C)cc5)nn4)c3)c2cc1OCCOC [e12, [6,7-Bis-(2-methoxy-ethoxy)-quinazolin-4-yl]-[3-(1-p-tolyl-1H-[1,2,3]triazol-4-yl)-phenyl]-amine]
- cell apoptosis (flow cytometry) (PC-9 cells [1]; PC-9, 4, 8 and 12 μM, 48 h): significant cell apoptosis
- Apoptosis, Average (PC-9 cells [1]; 4uM): 13.94
- Apoptosis (sum of Q2 and Q3) (PC-9 cells [1]; 4uM): 15.01 and 16.36 and 10.45
- Lymphocytes/Q2: FITC-A+ , PI-A+ Freq. of Parent (PC-9 cells [1]; 4uM): 14.50% and 15.4% and 9.81%
- Lymphocytes/Q3: FITC-A+ , PI-A- Freq. of Parent (PC-9 cells [1]; 4uM): 0.51% and 0.96% and 0.64%
- Apoptosis, Average (PC-9 cells [1]; 8uM): 12.92
- Apoptosis (sum of Q2 and Q3) (PC-9 cells [1]; 8uM): 13.98 and 12.64 and 12.13
- Lymphocytes/Q2: FITC-A+ , PI-A+ Freq. of Parent (PC-9 cells [1]; 8uM): 12.60% and 10.6% and 10.7%
- Lymphocytes/Q3: FITC-A+ , PI-A- Freq. of Parent (PC-9 cells [1]; 8uM): 1.38% and 2.04% and 1.43%
- Apoptosis, Average (PC-9 cells [1]; 12uM): 29.21
- Apoptosis (sum of Q2 and Q3) (PC-9 cells [1]; 12uM): 24.77 and 29.39 and 33.48
- Lymphocytes/Q2: FITC-A+ , PI-A+ Freq. of Parent (PC-9 cells [1]; 12uM): 20.50% and 25.9% and 29.5%
- Lymphocytes/Q3: FITC-A+ , PI-A- Freq. of Parent (PC-9 cells [1]; 12uM): 4.27% and 3.49% and 3.98%
- G0/G1 (H460 cells; H460, 4uM): 46.77% and 59.95%
- G2/M (H460 cells; H460, 4uM): 19.08% and 18.32% and 13.33%
- S (H460 cells; H460, 4uM): 34.15% and 35.36% and 26.72%
- G0/G1 (H460 cells; H460, 8uM): 49.59% and 63.38%
- G2/M (H460 cells; H460, 8uM): 16.88% and 18.32% and 11.47%
- S (H460 cells; H460, 8uM): 33.54% and 35.36% and 25.15%
- G0/G1 (H460 cells; H460, 12uM): 47.32% and 46.51% and 62.09%
- S (H460 cells; H460, 12uM): 32.63% and 19.41% and 25.2%
- percentage of cells in the G0/G1 phase (H460 cells; H460, various concentrations, 12 h): induced higher percentages
- p-AKT/AKT ([2]; H460, 0.1 uM): 1.267
- p-AKT/AKT relative to DMSO ([2]; H460, 0.1 uM): 1.274
- p-AKT/AKT ([2]; H460, 1 uM): 0.9055
- p-AKT/AKT relative to DMSO ([2]; H460, 1 uM): 0.9102
- p-AKT/AKT ([2]; H460, 10 uM): 0.594
- p-AKT/AKT relative to DMSO ([2]; H460, 10 uM): 0.5972
- phosphorylation of AKT (western blot) ([2]; H460, especially at 10 μM): suppressed
- p-EGFR/EGFR ([3]; H460, 0.1 uM): 0.7896
- p-EGFR/EGFR relative to DMSO ([3]; H460, 0.1 uM): 0.9489
- p-EGFR/EGFR ([3]; H460, 1 uM): 0.75
- p-EGFR/EGFR relative to DMSO ([3]; H460, 1 uM): 0.9013
- p-EGFR/EGFR ([3]; H460, 10 uM): 0.166
- p-EGFR/EGFR relative to DMSO ([3]; H460, 10 uM): 0.1995
- phosphorylation of EGFR (western blot) ([3]; H460, especially at 10 μM): suppressed
- inhibition at 4 µM (PC-9 cells [4]; Homo sapiens, PC-9, read-out: Inhibitory efficacy, PC-9, 4uM, single repeats (Repeat 1-3), given as fraction): 21.3%
- inhibition at 8 µM (PC-9 cells [4]; Homo sapiens, PC-9, read-out: Inhibitory efficacy, PC-9, 8uM, single repeats (Repeat 1-3), given as fraction): 70.1%
- inhibition at 16 µM (PC-9 cells [4]; Homo sapiens, PC-9, read-out: Inhibitory efficacy, PC-9, 16uM, single repeats (Repeat 1-3), given as fraction): 88.6%
- Inhibitory efficacy (PC-9 cells [4]; PC-9, 4uM, 4 µM): 0.1587 and 0.2347
- Inhibitory efficacy (PC-9 cells [4]; PC-9, 8uM, 8 µM): 0.6968 and 0.6771
- Inhibitory efficacy (PC-9 cells [4]; PC-9, 16uM, 16 µM): 0.8795 and 0.8884
- apoptotic morphology, Hoechst 33342 staining (PC-9 cells [5]): exhibited features typical of apoptosis
